Laboratory results reported in publication PMC7441158 (Nature Communications, 2020).

Legend:
neprilysin (NEP) [1] = target: T1, neprilysin (NEP) (Homo sapiens, UniProt P08473); experiment: In vitro degradation by neprilysin, MALDI-TOF timecourse assay; format: in vitro ADME; conditions: sialylated ST O-glycan structure, 15 µM peptide, 37 °C, pH 9.0, NEP 20 ng/μL (PYY), 150 pg/μL (GAL)
T1 construct: purchased R&D Systems

[2] = Half-life of native and glycosylated GLP-1 isoforms in rats; conditions: anesthetized male Wistar rats, i.v. bolus 20 nmol/kg; for half-life t1/2 in circulation: n = 8 per group, total GLP-1 in plasma (assay against amidated C-terminus: intact 7–36 amide and metabolites), one-phase decay, linear model on ln-transformed data; for detectability in circulation after injection (in words): total GLP-1 assay, plasma sampled up to 60 min
Description: Male Wistar rats (≈250 g) were obtained from Janvier (Saint Berthevin Cedex, France) and housed in pairs under standard conditions with ad libitum access to chow and water. Rats were acclimatized for at least 1 week before the study. Studies were carried out on two occasions, matching on each occasion the number of rats in each group, while at the same time avoiding rats from the same cage receiving the same test solution. […] On the day of study, non-fasted rats were anesthetized by a subcutaneous injection with Hypnorm/Midazolam (0.3 ml per 100 g body weight) and placed on a heated operating table (37 °C). The abdominal cavity was opened by a midline incision and a plastic catheter was inserted in the portal vein. Blood was collected (∼300 µl per timepoint) through the catheter into ice cold EDTA-coated tubes that were immediately placed one ice. Samples were collected at timepoint −5, 0, 1, 2, 5, 10, 15, 25, 45, and 60 min. In between samples, ∼200 µL PBS were injected to flush the catheter and replace lost fluid. […] At end of study, rats were sacrificed by diaphragm perforation.
Only data points represented by n > 4 were included in the analysis. To test the difference in rate constant (k), a multiple linear model (lm) was fitted to the pooled data with glycoform set as interaction (lm, Concentration ∼ Timepoint * Glycoform).

[3] = intact GLP-1 (7–36 amide); cited from earlier work
[4] = cited from earlier work
[5] = test system: dipeptidyl peptidase IV (DPP-IV); experiment: DPP-IV (R&D Systems) in 50 mM Tris, pH 8.0; conditions: 37 °C, up to 24 h
neprilysin (NEP) [6] = experiment: NEP (R&D Systems) in 50 mM Tris, 0.05% Brij-35, pH 9.0; conditions: 37 °C, up to 24 h

T1 sequence (P08473 whole entry, species assumed): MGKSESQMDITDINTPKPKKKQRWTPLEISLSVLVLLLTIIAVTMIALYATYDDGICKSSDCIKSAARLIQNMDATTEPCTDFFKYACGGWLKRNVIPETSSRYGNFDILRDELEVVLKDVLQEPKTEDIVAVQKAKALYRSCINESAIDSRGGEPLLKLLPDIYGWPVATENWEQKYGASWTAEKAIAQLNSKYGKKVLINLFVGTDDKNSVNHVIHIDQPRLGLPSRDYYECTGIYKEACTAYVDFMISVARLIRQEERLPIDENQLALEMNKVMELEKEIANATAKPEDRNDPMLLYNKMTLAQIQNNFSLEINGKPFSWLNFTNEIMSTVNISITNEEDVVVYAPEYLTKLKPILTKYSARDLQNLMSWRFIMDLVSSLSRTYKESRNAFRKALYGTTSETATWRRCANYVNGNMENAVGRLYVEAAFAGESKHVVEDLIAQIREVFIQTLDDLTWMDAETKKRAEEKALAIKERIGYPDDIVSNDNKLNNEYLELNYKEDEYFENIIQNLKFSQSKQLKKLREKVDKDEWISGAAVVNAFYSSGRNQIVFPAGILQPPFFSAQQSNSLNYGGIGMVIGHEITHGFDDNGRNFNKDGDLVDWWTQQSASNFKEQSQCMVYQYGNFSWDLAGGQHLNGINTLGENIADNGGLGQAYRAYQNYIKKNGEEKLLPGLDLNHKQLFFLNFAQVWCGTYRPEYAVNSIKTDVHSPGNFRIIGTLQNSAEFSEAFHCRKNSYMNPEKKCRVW

Row | not cleaved (neprilysin (NEP) [6]) | Molecule | half-life t1/2 in circulation [2] | detectability in circulation after injection (in words) [2] | further results
1 |  | CC(=O)N[C@H]1[C@@H](OC[C@H](NC(=O)[C@H](Cc2ccccc2)NC(=O)[C@H](CO)NC(=O)[C@H](CCCNC(=N)N)NC(=O)[C@H](Cc2c[nH]cn2)NC(=O)[C@H](CC(N)=O)NC(=O)CNC(=O)[C@@H](NC(=O)[C@H](C)NC(=O)[C@H](Cc2c[nH]cn2)NC(=O)[C@@H]2CCCN2C(=O)CNC(=O)[C@H](CC(C)C)NC(=O)[C@H](CC(C)C)NC(=O)[C@H](Cc2ccc(O)cc2)NC(=O)CNC(=O)[C@H](C)NC(=O)[C@H](CO)NC(=O)[C@H](CC(N)=O)NC(=O)[C@H](CC(C)C)NC(=O)[C@@H](NC(=O)[C@H](Cc2c[nH]c3ccccc23)NC(=O)CN)[C@@H](C)O)C(C)C)C(=O)N[C@@H](CC(=O)O)C(=O)N[C@@H](CCCCN)C(=O)N[C@@H](CC(N)=O)C(=O)NCC(=O)N[C@@H](CC(C)C)C(=O)N[C@H](C(=O)N[C@@H](CO)C(=O)O)[C@@H](C)O)O[C@H](CO)[C@H](O)[C@@H]1O[C@@H]1O[C@H](CO)[C@H](O)[C@H](O[C@]2(C(=O)O)C[C@H](O)[C@@H](NC(C)=O)[C@H]([C@H](O)[C@H](O)CO)O2)[C@H]1O [Galanin ST] |  |  | full-length peptide after incubation with NEP (in words) (neprilysin (NEP) [1]): readily detectable after 24 h
2 |  | CC[C@H](C)[C@H](NC(=O)[C@H](Cc1ccccc1)NC(=O)[C@H](CCC(=O)O)NC(=O)[C@H](CCCCN)NC(=O)[C@H](C)NC(=O)[C@H](C)NC(=O)[C@H](CCC(N)=O)NC(=O)CNC(=O)[C@H](CCC(=O)O)NC(=O)[C@H](CC(C)C)NC(=O)[C@H](Cc1ccc(O)cc1)NC(=O)[C@H](CO)NC(=O)[C@H](CO)NC(=O)[C@@H](NC(=O)[C@H](CC(=O)O)NC(=O)[C@H](CO)NC(=O)[C@@H](NC(=O)[C@H](Cc1ccccc1)NC(=O)[C@@H](NC(=O)CNC(=O)[C@H](CCC(=O)O)NC(=O)[C@H](C)NC(=O)[C@@H](N)Cc1c[nH]cn1)[C@@H](C)O)[C@@H](C)O)C(C)C)C(=O)N[C@@H](C)C(=O)N[C@@H](Cc1c[nH]c2ccccc12)C(=O)N[C@@H](CC(C)C)C(=O)N[C@H](C(=O)N[C@@H](CCCCN)C(=O)NCC(=O)N[C@@H](CCCNC(=N)N)C(N)=O)C(C)C [GLP-1, glucagon-like peptide 1, reference compound] | 2.7 min | undetectable after the 15 min timepoint | half-life in circulation, literature [3]: ~ 2 min
3 | −: not susceptible to degradation | HAEGTFTSDVSSYLEGQAAKEFIAWLVKGR |  |  | fragment found [4]: 9–36 amide, major; not cleaved [5]: −: not susceptible to degradation
4 |  | CC[C@H](C)[C@H](NC(=O)[C@H](Cc1ccccc1)NC(=O)[C@H](CCC(=O)O)NC(=O)[C@H](CCCCN)NC(=O)[C@H](C)NC(=O)[C@H](C)NC(=O)[C@H](CCC(N)=O)NC(=O)CNC(=O)[C@H](CCC(=O)O)NC(=O)[C@H](CC(C)C)NC(=O)[C@H](Cc1ccc(O)cc1)NC(=O)[C@H](CO)NC(=O)[C@H](CO)NC(=O)[C@@H](NC(=O)[C@H](CC(=O)O)NC(=O)[C@H](CO)NC(=O)[C@@H](NC(=O)[C@H](Cc1ccccc1)NC(=O)[C@@H](NC(=O)CNC(=O)[C@H](CCC(=O)O)NC(=O)[C@H](C)NC(=O)[C@@H](N)Cc1c[nH]cn1)[C@@H](C)O)[C@@H](C)O[C@H]1O[C@H](CO)[C@H](O)[C@H](O[C@@H]2O[C@H](CO)[C@H](O)[C@H](O[C@]3(C(=O)O)C[C@H](O)[C@@H](NC(C)=O)[C@H]([C@H](O)[C@H](O)CO)O3)[C@H]2O)[C@H]1NC(C)=O)C(C)C)C(=O)N[C@@H](C)C(=O)N[C@@H](Cc1c[nH]c2ccccc12)C(=O)N[C@@H](CC(C)C)C(=O)N[C@H](C(=O)N[C@@H](CCCCN)C(=O)NCC(=O)N[C@@H](CCCNC(=N)N)C(N)=O)C(C)C [GLP-1 ST] | 22.7 min | readily detectable in circulation even after 60 min | 
5 | −: not susceptible to degradation | HSDGTFTSELSRLREGARLQRLLQGLV |  |  | 
6 | −: not susceptible to degradation | HSDAVFTDNYTRLRKQMAVKKYLNSILN |  |  | 
